Literature values, collected in patent US20250295646A1, “METHODS OF USE OF T-TYPE CALCIUM CHANNEL MODULATORS” (Praxis Precision Medicines, Inc., priority 2022, published 2025).

Settings: WO 2020/072773, cited from earlier work

SMILES: CC(C)c1ccc(CC(=O)N[C@H](C)c2ccc(OCC(F)(F)F)cn2)cc1 [CX-8998]
- discontinuation due to intolerability of adverse events (28-day essential tremor study): 17%
- discontinuation rate (28-day essential tremor study): 23%
- tolerability of doses of 20 and 24 mg: less well tolerated
- single doses generally well tolerated (non-titrated): up to 16 mg
